Results from publication PMC8150690, “Effects of Extraction Conditions on Banana Peel Polyphenol Oxidase Activity and Insights into Inactivation Kinetics Using Thermal and Cold Plasma Treatment” (Foods, 2021).

What was measured:
Format in all cases: biochemical, Musa acuminata x Musa balbisiana
[1] = system: T1, 'Prata' banana peel polyphenol oxidase (PPO); experiment: spectrophotometric, […] nm, proline-catechol adduct formation, non-linear Michaelis-Menten fit; conditions: crude extract; McIlvaine buffer pH 6.5, 30 °C; constant 50 mM L-proline as coupling agent; O2 co-substrate; read-out: apparent KM
T1 construct: native crude extract of freeze-dried peel (McIlvaine buffer pH 6.5, PVP, Triton X-100); not purified; o-diphenol oxidase activity

[2] = system: T1, 'Prata' banana peel polyphenol oxidase (PPO); experiment: spectrophotometric initial rate, […] nm, non-linear Michaelis-Menten fit; conditions: crude extract; McIlvaine buffer pH 6.5, 30 °C; O2 co-substrate
[3] = system: T1, 'Prata' banana peel polyphenol oxidase (PPO); experiment: as above; conditions: crude extract; McIlvaine buffer pH 6.5, 30 °C; O2 co-substrate; remark: listed apart in the source

Question: `Cc1ccc(O)c(O)c1` [4-methylcatechol] was tested. Which Km [1] did it give?
Answer: Its Km is 4.01 mM.

Question: Which Km [2] does the source give for `NCCc1ccc(O)c(O)c1` [Dopamine] here?
Answer: Its Km is 0.94 ± 0.07 mM.

Question: Which Km [3] does the source give for `O=C(/C=C/c1ccc(O)c(O)c1)O[C@@H]1C[C@](O)(C(=O)O)C[C@@H](O)[C@H]1O` [Chlorogenic acid] here?
Answer: Its Km is 7.54 ± 0.51 mM.
